Experimental data published in ChEMBL document CHEMBL1132055, “1-Aminoisoquinoline as benzamidine isoster in the design and synthesis of orally active thrombin inhibitors” (Bioorg Med Chem Lett, 1999).

How the values were obtained:
Prothrombin = Prothrombin (Homo sapiens, UniProt P00734); assay: Compound was tested for inhibitory activity against thrombin
Serine protease 1 = Serine protease 1 (Homo sapiens, UniProt P07477); assay: Compound was tested for inhibitory activity against trypsin
Caco-2 = details: Homo sapiens
Description: Compound was tested for its effect on increasing the permeability of Caco-2 cells

Chain of Serine protease 1 (P07477 whole entry): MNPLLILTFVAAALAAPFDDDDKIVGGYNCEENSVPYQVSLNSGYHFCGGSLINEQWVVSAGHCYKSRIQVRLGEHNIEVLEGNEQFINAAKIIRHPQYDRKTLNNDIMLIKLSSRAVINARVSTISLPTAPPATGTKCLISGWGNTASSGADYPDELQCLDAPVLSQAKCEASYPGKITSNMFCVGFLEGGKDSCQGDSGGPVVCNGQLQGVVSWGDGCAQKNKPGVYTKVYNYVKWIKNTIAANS

SMILES | IC50 (Prothrombin) | IC50 (Serine protease 1) | Papp (Caco-2)
Cc1ccc(S(=O)(=O)NCC(=O)NC(Cc2ccc3c(N)nccc3c2)C(=O)N2CCCCC2)cc1 (stereo unspecified) | 357 µM | – | –
COc1cc(C)c(S(=O)(=O)N[C@@H](CC(=O)OC(C)(C)C)C(=O)NC(Cc2ccc3c(N)nccc3c2)C(=O)N2CCCCC2)c(C)c1C (stereo partly specified) | – | 378 µM | –
Nc1nccc2cc(CC(NC(=O)CNS(=O)(=O)c3ccc4ccccc4c3)C(=O)N3CCCCC3)ccc12 (stereo unspecified) | 55 µM | 255 µM | 1.9 ×10⁻⁶ cm/s
Cc1c(C)c(S(=O)(=O)NCC(=O)NC(Cc2ccc3c(N)nccc3c2)C(=O)N2CCCCC2)c(C)c2c1OC(C)(C)CC2 (stereo unspecified) | – | – | 3.7 ×10⁻⁶ cm/s
